Data: patent publication US12077503B2, “Substituted cyclic amides and their use as herbicides” (FMC CORPORATION, priority 2015, dated 2024)

Experiments:
Assay type in all cases: in vivo
[1] = tested on: sedge, umbrella (small-flower umbrella sedge, Cyperus difformis); experiment: Test B flooded paddy test; settings: Cyperus difformis, 250 g ai/ha, Flood; 0 to 100 scale where 0 is no effect and 100 is complete control; read-out: Sedge, Umbrella plant response rating
How it was run: (§1)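 Rating scale 0–100 (visual, vs untreated controls) after a 13–15 d greenhouse period; application to the flood layer, 3 cm above soil and maintained; plants at 2-leaf stage when treated.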

[2] = tested on: ducksalad (Heteranthera limosa); experiment: Test B flooded paddy test; settings: Heteranthera limosa, 250 g ai/ha, Flood; 0 to 100 scale where 0 is no effect and 100 is complete control; read-out: Ducksalad plant response rating
How it was run: as §1

rice (Oryra sativa) = experiment: Test B flooded paddy test; settings: Oryza sativa, 250 g ai/ha, Flood; 0 to 100 scale where 0 is no effect and 100 is complete control; read-out: Rice plant response rating
How it was run: as §1

[3] = tested on: barnyardgrass (Echinochloa crus-galli); experiment: Test B flooded paddy test; settings: Echinochloa crus-galli, 250 g ai/ha, Flood; 0 to 100 scale where 0 is no effect and 100 is complete control; read-out: Barnyardgrass plant response rating
How it was run: as §1

[4] = tested on: pigweed (Amaranthus retroflexus); experiment: Test A preemergence; settings: Amaranthus retroflexus, pre-emergence, 240 h, Preemergence
[5] = tested on: giant foxtail (Setaria faberii); experiment: Test A preemergence; settings: Setaria faberi, pre-emergence, 240 h, Preemergence
How it was run: (§2)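 Visual injury, scored on a 0–100 scale relative to untreated controls, was recorded about 10 d after application. Treatments were a preemergence soil spray over planted seeds or a postemergence spray on plants at the one- to two-leaf stage, 2 to 10 cm tall, all in loam soil–sand blend in the greenhouse.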

[6] = tested on: ryegrass, Italian (Italian ryegrass, Lolium multiflorum); experiment: Test A preemergence; settings: Lolium multiflorum, pre-emergence, 240 h, Preemergence
How it was run: as §2

[7] = tested on: ragweed (common ragweed, Ambrosia elatior); experiment: Test A preemergence; settings: Ambrosia artemisiifolia, pre-emergence, 240 h, Preemergence
How it was run: as §2

[8] = tested on: barnyardgrass (Echinochloa crus-galli); experiment: Test A preemergence; settings: Echinochloa crus-galli, pre-emergence, 240 h, Preemergence
How it was run: as §2

Kochia (Kochia scoparia) [9] = experiment: Test A preemergence; settings: Bassia scoparia, pre-emergence, 240 h, Preemergence
How it was run: as §2

[10] = tested on: pigweed (Amaranthus retroflexus); experiment: Test A postemergence; settings: Amaranthus retroflexus, post-emergence, 240 h, Postemergence, read-out: Plant response rating, Pigweed
How it was run: as §2

[11] = tested on: giant foxtail (Setaria faberii); experiment: Test A postemergence; settings: Setaria faberi, post-emergence, 240 h, Postemergence, read-out: Plant response rating, Foxtail, Giant
How it was run: as §2

[12] = tested on: wheat (Triticum aestivum); experiment: Test A postemergence; settings: Triticum aestivum, post-emergence, 240 h, Postemergence, read-out: Plant response rating, Wheat
How it was run: as §2

[13] = tested on: ryegrass, Italian (Italian ryegrass, Lolium multiflorum); experiment: Test A postemergence; settings: Lolium multiflorum, post-emergence, 240 h, Postemergence, read-out: Plant response rating, Ryegrass, Italian
How it was run: as §2

[14] = tested on: ragweed (common ragweed, Ambrosia elatior); experiment: Test A postemergence; settings: Ambrosia artemisiifolia, post-emergence, 240 h, Postemergence, read-out: Plant response rating, Ragweed
How it was run: as §2

[15] = tested on: blackgrass (Alopecurus myosuroides); experiment: Test A postemergence; settings: Alopecurus myosuroides, post-emergence, 240 h, Postemergence, read-out: Plant response rating, Blackgrass
How it was run: as §2

[16] = tested on: barnyardgrass (Echinochloa crus-galli); experiment: Test A postemergence; settings: Echinochloa crus-galli, post-emergence, 240 h, Postemergence, read-out: Plant response rating, Barnyardgrass
How it was run: as §2

[17] = tested on: Galium (catchweed bedstraw, Galium aparine); experiment: Test A postemergence; settings: Galium, post-emergence, 240 h, Postemergence, read-out: Plant response rating, Galium
How it was run: as §2

corn (Zea mays) = experiment: Test A postemergence; settings: Zea mays, post-emergence, 240 h, Postemergence
How it was run: as §2

Kochia (Kochia scoparia) [18] = experiment: Test A postemergence; settings: Bassia scoparia, post-emergence, 240 h, Postemergence, read-out: Plant response rating, Kochia
How it was run: as §2

[19] = 125 g ai/ha, visual injury after approximately 10 d, 0 to 100 scale where 0 is no effect and 100 is complete control
[20] = 31 g ai/ha, visual injury after approx. 10 d, 0 to 100 scale, 0 no effect, 100 complete control

CC(C)=CC1CNC(=O)C1C(=O)Nc1ccccc1F (stereo not drawn) [Compound 1011]
0%: pest or weed control at 250 g/ha [1] | pest or weed control at 250 g/ha [2] | pest or weed control at 250 g/ha (rice (Oryra sativa)) | pest or weed control at 250 g/ha [3] | pest or weed control at 31 g/ha ([4]; 31 g ai/ha, 0 to 100 scale where 0 is no effect and 100 is complete control, read-out: Pigweed plant response rating) | pest or weed control at 125 g/ha ([4]; 125 g ai/ha, visual injury rating after approximately 10 d, read-out: Pigweed plant response rating (0 to 100 scale, 0 is no effect, 100 is complete control)) | pest or weed control at 125 g/ha ([5]; 125 g ai/ha, visual injury rating after approximately 10 d, read-out: Foxtail, Giant plant response rating (0 to 100 scale, 0 is no effect, 100 is complete control)) | pest or weed control at 31 g/ha ([5]; 31 g ai/ha, 0 to 100 scale (0 no effect, 100 complete control), read-out: Plant response rating, Foxtail, Giant) | pest or weed control at 31 g/ha ([6]; 31 g ai/ha, 0 to 100 scale where 0 is no effect and 100 is complete control, read-out: Ryegrass, Italian plant response rating) | pest or weed control at 125 g/ha ([6]; 125 g ai/ha, visual injury rating after approximately 10 d, read-out: Ryegrass, Italian plant response rating (0 to 100 scale, 0 is no effect, 100 is complete control)) | pest or weed control at 31 g/ha ([7]; 31 g ai/ha, 0 to 100 scale where 0 is no effect and 100 is complete control, read-out: Ragweed plant response rating) | pest or weed control at 125 g/ha ([7]; 125 g ai/ha, visual injury rating after approximately 10 d, read-out: Ragweed plant response rating (0 to 100 scale, 0 is no effect, 100 is complete control)) | pest or weed control at 125 g/ha ([8]; 125 g ai/ha, visual injury rating after approximately 10 d, read-out: Barnyardgrass plant response rating (0 to 100 scale, 0 is no effect, 100 is complete control)) | pest or weed control at 31 g/ha ([8]; 31 g ai/ha, 0 to 100 scale (0 no effect, 100 complete control), read-out: Plant response rating, Barnyardgrass) | pest or weed control at 31 g/ha (Kochia (Kochia scoparia) [9]; 31 g ai/ha, 0 to 100 scale where 0 is no effect and 100 is complete control, read-out: Kochia plant response rating) | pest or weed control at 125 g/ha (Kochia (Kochia scoparia) [9]; 125 g ai/ha, visual injury rating after approximately 10 d, read-out: Kochia plant response rating (0 to 100 scale, 0 is no effect, 100 is complete control)) | pest or weed control at 125 g/ha [10, 19] | pest or weed control at 31 g/ha [10, 20] | pest or weed control at 125 g/ha [11, 19] | pest or weed control at 31 g/ha [11, 20] | plant injury at 125 g/ha [12, 19] | plant injury at 31 g/ha [12, 20] | pest or weed control at 125 g/ha [13, 19] | pest or weed control at 31 g/ha [13, 20] | pest or weed control at 125 g/ha [14, 19] | pest or weed control at 31 g/ha [14, 20] | pest or weed control at 125 g/ha [15, 19] | pest or weed control at 31 g/ha [15, 20] | pest or weed control at 125 g/ha [16, 19] | pest or weed control at 31 g/ha [16, 20] | pest or weed control at 125 g/ha [17, 19] | pest or weed control at 31 g/ha [17, 20] | Corn plant response rating (crop injury, 0 = no effect, 100 = complete kill) at 125 g/ha (corn (Zea mays); [19]) | Corn plant response rating (crop injury, 0 = no effect, 100 = complete kill) at 31 g/ha (corn (Zea mays); [20]) | pest or weed control at 125 g/ha (Kochia (Kochia scoparia) [18]; [19]) | pest or weed control at 31 g/ha (Kochia (Kochia scoparia) [18]; [20])
